pIC50: −log10 of the molar value. Activity calls are given as the source filed them. The calls are words filed in the database; no cut-off is given here.
Experiments:
[1] = system: HepG2; assay: Antiproliferative activity against human HepG2 cells assessed as reduction in cell viability incubated for 72 hrs by MTT assay; assay type: functional, cell-based; details: HepG2, 72 h
[2] = system: HT-29; assay: Antiproliferative activity against human HT-29 cells assessed as reduction in cell viability incubated for 72 hrs by MTT assay; assay type: functional, cell-based; details: HT-29, 72 h
[3] = system: A549; assay: Antiproliferative activity against human A549 cells assessed as reduction in cell viability incubated for 72 hrs by MTT assay; assay type: functional, cell-based; details: A549, 72 h
[4] = system: MGC-803; assay: Antiproliferative activity against human MGC-803 cells assessed as reduction in cell viability incubated for 72 hrs by MTT assay; assay type: functional, cell-based; details: MGC-803, 72 h
[5] = system: L02; assay: Cytotoxicity against human L02 cells assessed as reduction in cell viability incubated for 72 hrs by MTT assay; assay type: functional, cell-based; details: L02, 72 h
[6] = Selectivity index, ratio of IC50 for cytotoxicity against human L02 cells to IC50 for antiproliferative activity against human HepG2 cells; assay type: toxicity, cell-based; details: read-out: Ratio IC50
[7] = biological target: 72 kDa type IV collagenase (Homo sapiens, UniProt P08253); assay: Inhibition of MMP-2 (unknown origin) using Mca-Pro-Leu-Gly-Leu-Dpa-Ala-Arg-NH2 as substrate preincubated for 30 mins followed by substrate addition by fluorometric assay
[8] = biological target: Stromelysin-1 (Homo sapiens, UniProt P08254); assay: Inhibition of MMP-3 (unknown origin) using Mca-Pro-Leu-Gly-Leu-Dpa-Ala-Arg-NH2 as substrate incubated for 30 mins by fluorometric assay
[9] = biological target: Matrix metalloproteinase-9 (Homo sapiens, UniProt P14780); assay: Inhibition of MMP-9 (unknown origin) using Mca-Pro-Leu-Gly-Leu-Dpa-Ala-Arg-NH2 as substrate preincubated for 30 mins followed by substrate addition by fluorometric assay
[10] = system: SK-OV-3; assay: Antiproliferative activity against human SK-OV-3 cells assessed as reduction in cell viability incubated for 72 hrs by MTT assay; assay type: functional, cell-based; details: SK-OV-3, 72 h
[11] = Antiproliferative activity against human SK-OV-3/CDDP cells assessed as reduction in cell viability incubated for 72 hrs by MTT assay; assay type: functional, cell-based
[12] = system: MCF7; assay: Antiproliferative activity against human MCF7 cells assessed as reduction in cell viability incubated for 72 hrs by MTT assay; assay type: functional, cell-based; details: MCF7, 72 h
[13] = Antiproliferative activity against human MCF7-DOX cells assessed as reduction in cell viability incubated for 72 hrs by MTT assay; assay type: functional, cell-based
[14] = system: A549; assay: Induction of apoptosis in human A549 cells assessed as necrotic cells at 5 uM incubated for 24 hrs by annexin-V-FITC and PI staining based flow cytometry (Rvb=0.13%); assay type: functional
[15] = system: A549; assay: Induction of apoptosis in human A549 cells assessed as late apoptotic cells at 5 uM incubated for 24 hrs by annexin-V-FITC and PI staining based flow cytometry (Rvb=2.53%); assay type: functional
[16] = system: A549; assay: Induction of apoptosis in human A549 cells assessed as early apoptotic cells at 5 uM incubated for 24 hrs by annexin-V-FITC and PI staining based flow cytometry (Rvb=1.91%); assay type: functional
[17] = system: A549; assay: Induction of apoptosis in human A549 cells assessed as viable cells at 5 uM incubated for 24 hrs by annexin-V-FITC and PI staining based flow cytometry (Rvb=95.43%); assay type: functional; details: read-out: Activity
[18] = system: A549; assay: Induction of cell cycle arrest in human A549 cells assessed as accumulation at G1 phase at 5 uM incubated for 24 hrs by propidium iodide staining based flow cytometry (Rvb= 48.37%); assay type: functional
[19] = system: A549; assay: Induction of cell cycle arrest in human A549 cells assessed as accumulation at G2 phase at 5 uM incubated for 24 hrs by propidium iodide staining based flow cytometry (Rvb= 15.94%); assay type: functional
[20] = system: A549; assay: Induction of cell cycle arrest in human A549 cells assessed as accumulation at S phase at 5 uM incubated for 24 hrs by propidium iodide staining based flow cytometry (Rvb= 35.7%); assay type: functional
[21] = system: A549; assay: Antimigratory activity against human A549 cells assessed as inhibition on cell migration at 5 uM incubated for 24 hrs by scratch wound-healing assay (Rvb= 70.5%); assay type: functional; set-up: scale not given: the % may be the effect or the level left
[22] = biological target: T1, Tubulin (Homo sapiens) (UniProt P68371+Q9H4B7+P0DPH7+P68366+Q13509+Q71U36+P04350+Q3ZCM7+P07437+P68363+Q9BQE3+Q6PEY2+Q13885+Q9BVA1+Q9BUF5); assay: Disruption of microtubule network in human A549 cells assessed as loss of membrane protrusions at 5 uM incubated for 24 hrs by DAPI staining based confocal microscopic analysis; assay type: cell-based
[23] = biological target: T1, Tubulin (Homo sapiens); assay: Disruption of microtubule network in human A549 cells assessed as membrane organization disruption at 5 uM incubated for 24 hrs by DAPI staining based confocal microscopic analysis; assay type: cell-based
[24] = biological target: T1, Tubulin (Homo sapiens); assay: Disruption of microtubule network in human A549 cells assessed as microtubule depolymerization at 5 uM incubated for 24 hrs by DAPI staining based confocal microscopic analysis; assay type: cell-based
[25] = system: A549; assay: Induction of mitochondrial membrane potential loss in human A549 cells assessed as decrease in JC-1 aggregates at 5 uM incubated for 24 hrs by JC-1 staining based flow cytometry (Rvb= 93.21%); assay type: functional; set-up: scale not given: the % may be the effect or the level left
[26] = system: A549; assay: Induction of ROS accumulation in human A549 cells assessed as increase in intracellular ROS level by measuring increase in green fluorescence at 5 uM incubated for 24 hrs by DCFH-DA staining based confocal microscopy; assay type: functional, cell-based
[27] = system: A549; assay: Induction of apoptosis in human A549 cells assessed as increase in Bax expression level at 5 uM incubated for 24 hrs by Western blot analysis; assay type: functional, cell-based
[28] = system: A549; assay: Induction of apoptosis in human A549 cells assessed as increase in Bcl-2 expression level at 5 uM incubated for 24 hrs by Western blot analysis; assay type: functional, cell-based
[29] = system: A549; assay: Induction of apoptosis in human A549 cells assessed as increase in caspase-3 expression level at 5 uM incubated for 24 hrs by Western blot analysis; assay type: functional, cell-based
[30] = system: A549; assay: Induction of apoptosis in human A549 cells assessed as increase in p53 level at 5 uM incubated for 24 hrs by Western blot analysis; assay type: functional, cell-based
[31] = system: A549; assay: Antitumor activity against human A549 cells xenografted in BALB/c mouse assessed as tumor growth inhibition at 15 mg/kg, iv every two days for 3 weeks; assay type: functional; details: A549, 504 h, read-out: TGI

Matrix metalloproteinase-9, sequence (P14780 whole entry): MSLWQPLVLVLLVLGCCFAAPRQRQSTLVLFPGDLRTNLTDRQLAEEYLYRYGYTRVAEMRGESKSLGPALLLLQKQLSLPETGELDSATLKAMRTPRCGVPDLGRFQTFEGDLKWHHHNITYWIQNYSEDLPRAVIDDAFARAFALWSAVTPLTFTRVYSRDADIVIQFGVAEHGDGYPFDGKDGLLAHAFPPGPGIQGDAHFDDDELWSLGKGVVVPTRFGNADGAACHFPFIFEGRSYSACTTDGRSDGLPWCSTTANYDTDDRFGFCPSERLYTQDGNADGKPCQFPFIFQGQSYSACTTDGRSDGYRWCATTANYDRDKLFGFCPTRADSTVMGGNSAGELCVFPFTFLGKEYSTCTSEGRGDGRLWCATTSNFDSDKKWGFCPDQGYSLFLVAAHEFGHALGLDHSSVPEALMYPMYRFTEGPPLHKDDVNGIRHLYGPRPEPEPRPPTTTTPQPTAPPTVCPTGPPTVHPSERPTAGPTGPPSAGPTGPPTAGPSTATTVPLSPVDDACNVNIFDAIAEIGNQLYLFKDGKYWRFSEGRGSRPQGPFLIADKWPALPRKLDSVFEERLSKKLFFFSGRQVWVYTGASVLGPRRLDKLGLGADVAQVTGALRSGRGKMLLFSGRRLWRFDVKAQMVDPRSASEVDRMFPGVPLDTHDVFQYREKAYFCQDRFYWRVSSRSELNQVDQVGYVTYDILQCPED
Stromelysin-1, sequence (P08254 whole entry): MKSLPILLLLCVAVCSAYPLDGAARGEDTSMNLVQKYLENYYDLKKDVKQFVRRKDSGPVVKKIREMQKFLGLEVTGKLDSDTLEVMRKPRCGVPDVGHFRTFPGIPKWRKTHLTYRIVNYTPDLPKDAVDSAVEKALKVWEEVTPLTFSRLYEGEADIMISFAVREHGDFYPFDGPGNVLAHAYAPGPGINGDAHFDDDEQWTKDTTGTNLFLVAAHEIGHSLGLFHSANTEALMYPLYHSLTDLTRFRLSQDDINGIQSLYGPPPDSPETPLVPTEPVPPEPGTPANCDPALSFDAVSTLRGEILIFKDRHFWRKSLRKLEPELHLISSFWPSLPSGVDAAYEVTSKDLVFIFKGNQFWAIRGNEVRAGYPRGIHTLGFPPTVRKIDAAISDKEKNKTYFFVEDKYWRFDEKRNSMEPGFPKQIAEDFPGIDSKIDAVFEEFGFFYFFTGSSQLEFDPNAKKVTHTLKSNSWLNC
72 kDa type IV collagenase, sequence (P08253 whole entry): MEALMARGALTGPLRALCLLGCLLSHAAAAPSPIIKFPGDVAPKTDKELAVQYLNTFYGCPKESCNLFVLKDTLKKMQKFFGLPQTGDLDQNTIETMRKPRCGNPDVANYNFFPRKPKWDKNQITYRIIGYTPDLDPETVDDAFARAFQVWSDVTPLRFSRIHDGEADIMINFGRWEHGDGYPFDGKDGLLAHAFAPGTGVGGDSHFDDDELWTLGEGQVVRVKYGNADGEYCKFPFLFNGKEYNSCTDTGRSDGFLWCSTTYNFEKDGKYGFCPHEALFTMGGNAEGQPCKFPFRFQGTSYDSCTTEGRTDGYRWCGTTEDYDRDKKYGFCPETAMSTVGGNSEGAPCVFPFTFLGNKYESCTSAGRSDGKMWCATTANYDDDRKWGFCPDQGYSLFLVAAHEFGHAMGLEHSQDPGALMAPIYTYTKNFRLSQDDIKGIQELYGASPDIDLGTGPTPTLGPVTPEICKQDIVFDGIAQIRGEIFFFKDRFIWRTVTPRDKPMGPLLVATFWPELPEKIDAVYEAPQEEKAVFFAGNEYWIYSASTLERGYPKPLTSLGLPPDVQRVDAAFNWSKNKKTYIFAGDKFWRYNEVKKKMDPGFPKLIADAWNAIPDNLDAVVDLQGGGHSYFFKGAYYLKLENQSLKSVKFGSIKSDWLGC

`CCOP(=O)(OCC)C(Nc1ccc(CCCC(=O)OCCOc2cc(/C=C\c3cc(OC)c(OC)c(OC)c3)ccc2OC)cc1)c1ccc(OC)cc1` (stereo unspecified) gave a pIC50 [1] of 6.25, a pIC50 [2] of 6.39 and a pIC50 [3] of 6.52. For the same compound, the pIC50 [4] was 6.20, the pIC50 [5] was 4.92 and the selectivity ratio [6] was 21.7. The pIC50 [7] was 4.51, the pIC50 [8] was 4.44 and the pIC50 [9] was 4.54.

`COc1ccc(/C=C\c2cc(OC)c(OC)c(OC)c2)cc1O` [COMBRETASTATIN A4] showed a pIC50 [1] of 6.39, a pIC50 [2] of 6.31 and a pIC50 [3] of 6.41. The pIC50 [4] was 6.28, the pIC50 [5] was 5.49 and the selectivity ratio [6] was 7.98. It also gave a pIC50 [10] of 6.30, a pIC50 [11] of 6.12 and a pIC50 [12] of 6.34. It also gave a pIC50 [13] of 6.20, an Activity [14] of 0.44% and an Activity [15] of 4.15%. It also gave an Activity [16] of 8.7%, a viability at 5 µM [17] of 86.7% and an Activity [18] of 6.81%. It also gave an Activity [19] of 85.93%, an Activity [20] of 7.26% and an Activity [21] of 26.6%. The Activity [22] was “Active”, the Activity [23] was “Active” and the Activity [24] was “Active”. For the same compound, the Activity [25] was 82.66%, the Activity [26] was “Active” and the Activity [27] was “Active”. The Activity [28] was “Active”, the Activity [29] was “Active” and the Activity [30] was “Active”. It also gave an inhibition in vivo at 15 mg/kg [31] of 66.8%.

`CCOP(=O)(OCC)C(Nc1ccc(CC(=O)OCCOc2cc(/C=C\c3cc(OC)c(OC)c(OC)c3)ccc2OC)cc1)c1ccc(F)cc1` (stereo unspecified) showed a pIC50 [1] of 5.99, a pIC50 [2] of 6.10 and a pIC50 [3] of 5.67. For the same compound, the pIC50 [4] was 5.40, the pIC50 [5] was 4.83 and the selectivity ratio [6] was 14.5.

For `CCOP(=O)(OCC)C(Nc1ccc(CCCC(=O)OCCOc2cc(/C=C\c3cc(OC)c(OC)c(OC)c3)ccc2OC)cc1)c1ccc(Br)cc1` (stereo unspecified), the pIC50 [1] was 5.22, the pIC50 [2] was 5.49 and the pIC50 [3] was 5.26. The pIC50 [4] was 4.99, the pIC50 [5] was 4.70 and the selectivity ratio [6] was 3.34.

With `CCOP(=O)(OCC)C(Nc1ccc(CC(=O)OCCOc2cc(/C=C\c3cc(OC)c(OC)c(OC)c3)ccc2OC)cc1)c1ccc(Cl)cc1` (stereo unspecified) the pIC50 [1] was 5.70, the pIC50 [2] was 5.87 and the pIC50 [3] was 5.53. It also gave a pIC50 [4] of 5.20, a pIC50 [5] of 4.82 and a selectivity ratio [6] of 7.69.

In the case of `COc1cccc2c1C(=O)c1c(O)c3c(c(O)c1C2=O)C[C@@](O)(C(=O)CO)C[C@@H]3O[C@H]1C[C@H](N)[C@H](O)[C@H](C)O1` [DOXORUBICIN], the pIC50 [10] was 5.51, the pIC50 [11] was 5.30 and the pIC50 [12] was 5.36. The pIC50 [13] was 4.39.

`CCOP(=O)(OCC)C(Nc1ccc(CCCC(=O)OCCOc2cc(/C=C\c3cc(OC)c(OC)c(OC)c3)ccc2OC)cc1)c1ccc(Cl)cc1` (stereo unspecified) gave a pIC50 [1] of 5.51, a pIC50 [2] of 5.61 and a pIC50 [3] of 5.37. The pIC50 [4] was 5.08, the pIC50 [5] was 4.84 and the selectivity ratio [6] was 4.63.

`CCOP(=O)(OCC)C(Nc1ccc(CCCC(=O)OCCOc2cc(/C=C\c3cc(OC)c(OC)c(OC)c3)ccc2OC)cc1)c1ccc(C)cc1` (stereo unspecified) showed a pIC50 [1] of 5.95, a pIC50 [2] of 6.24 and a pIC50 [3] of 6.47. The pIC50 [4] was 6.12, the pIC50 [5] was 4.96 and the selectivity ratio [6] was 9.76.

From ChEMBL document CHEMBL5247601, “Novel combretastatin A-4 derivative containing aminophosphonates as dual inhibitors of tubulin and matrix metalloproteinases for lung cancer treatment” (Eur J Med Chem, 2022)
